Source: ChEMBL document CHEMBL1153468, “Discovery of a novel protein kinase B inhibitor by structure-based virtual screening” (Bioorg Med Chem Lett, 2009)
The source made the active and inactive calls. The rule behind the calls is not given here.

How the values were obtained:
[1] = biological target: T1, RAC-beta serine/threonine-protein kinase (Homo sapiens, UniProt P31751); experiment: Inhibition of AKT2 at 25 uM by FRET based assay
[2] = biological target: T1, RAC-beta serine/threonine-protein kinase; experiment: Inhibition of AKT2 at 50 uM by FRET based assay
[3] = biological target: RAC-alpha serine/threonine-protein kinase (Homo sapiens, UniProt P31749); experiment: Inhibition of AKT1 by FRET based assay
[4] = system: MDA-MB-453; experiment: Cytotoxicity against human MDA-MB-453 cells with PIK3CA mutation and HER2 amplification after 12 hrs by MTT assay; format: functional, cell-based; details: MDA-MB-453, 12 h
[5] = system: MDA-MB-468; experiment: Cytotoxicity against human MDA-MB-468 cells with PTEN mutation and EGFR amplification after 12 hrs by MTT assay; format: functional, cell-based; details: MDA-MB-468, 12 h
[6] = biological target: T1, RAC-beta serine/threonine-protein kinase; experiment: Inhibition of AKT2 by FRET based assay
[7] = biological target: RAC-gamma serine/threonine-protein kinase (Homo sapiens, UniProt Q9Y243); experiment: Inhibition of AKT3 by FRET based assay
RAC-gamma serine/threonine-protein kinase, sequence (Q9Y243 whole entry): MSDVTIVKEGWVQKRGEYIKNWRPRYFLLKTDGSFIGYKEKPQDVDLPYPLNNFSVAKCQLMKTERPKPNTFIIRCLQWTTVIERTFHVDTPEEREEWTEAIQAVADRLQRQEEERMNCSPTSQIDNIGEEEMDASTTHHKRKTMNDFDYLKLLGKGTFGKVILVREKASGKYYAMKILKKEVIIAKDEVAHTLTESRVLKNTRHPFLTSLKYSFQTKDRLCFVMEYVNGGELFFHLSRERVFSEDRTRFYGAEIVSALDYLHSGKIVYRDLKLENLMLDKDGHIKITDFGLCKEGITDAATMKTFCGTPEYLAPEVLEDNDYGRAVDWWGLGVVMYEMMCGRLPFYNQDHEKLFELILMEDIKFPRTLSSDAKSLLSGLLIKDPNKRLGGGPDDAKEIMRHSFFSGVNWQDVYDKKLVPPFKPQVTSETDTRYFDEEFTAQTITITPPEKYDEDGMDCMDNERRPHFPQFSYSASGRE

T1 sequence (P31751 whole entry): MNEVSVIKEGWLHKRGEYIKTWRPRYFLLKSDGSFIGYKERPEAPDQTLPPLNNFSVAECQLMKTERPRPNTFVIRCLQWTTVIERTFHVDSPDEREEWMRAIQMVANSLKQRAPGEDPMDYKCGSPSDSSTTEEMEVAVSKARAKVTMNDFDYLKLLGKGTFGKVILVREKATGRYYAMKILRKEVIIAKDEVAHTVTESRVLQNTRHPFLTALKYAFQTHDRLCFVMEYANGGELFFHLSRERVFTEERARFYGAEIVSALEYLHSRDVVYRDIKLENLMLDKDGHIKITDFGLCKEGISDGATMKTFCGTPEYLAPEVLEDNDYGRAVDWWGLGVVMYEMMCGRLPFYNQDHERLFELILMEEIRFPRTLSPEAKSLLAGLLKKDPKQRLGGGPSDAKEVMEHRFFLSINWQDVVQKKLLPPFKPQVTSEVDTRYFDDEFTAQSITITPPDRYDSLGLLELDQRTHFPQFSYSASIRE
RAC-alpha serine/threonine-protein kinase, sequence (P31749 whole entry): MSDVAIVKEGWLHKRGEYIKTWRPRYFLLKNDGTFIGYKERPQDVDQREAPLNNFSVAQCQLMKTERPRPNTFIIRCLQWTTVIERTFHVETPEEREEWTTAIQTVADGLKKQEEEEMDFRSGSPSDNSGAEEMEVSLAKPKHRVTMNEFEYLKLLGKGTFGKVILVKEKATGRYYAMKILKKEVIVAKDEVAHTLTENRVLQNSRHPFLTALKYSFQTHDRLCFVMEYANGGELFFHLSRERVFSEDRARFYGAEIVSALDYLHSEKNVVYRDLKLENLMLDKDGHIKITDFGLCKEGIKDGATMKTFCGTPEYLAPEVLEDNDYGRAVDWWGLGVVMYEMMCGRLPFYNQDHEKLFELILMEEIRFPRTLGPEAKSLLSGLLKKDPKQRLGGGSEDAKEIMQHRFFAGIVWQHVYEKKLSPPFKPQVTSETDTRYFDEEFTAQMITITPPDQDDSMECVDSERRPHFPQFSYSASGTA

Activity [1] | Activity [2] | IC50 [3] [µM] | IC50 [6] [µM] | IC50 [7] [µM] | SMILES | EC50 [4] [µM] | EC50 [5] [µM]
inactive | inactive | – | – | – | Clc1ccc(C2(c3ccc(-c4cn[nH]c4)cc3)CCNCC2)cc1 | – | –
– | – | 2.6 | 1.5 | 4 | O=C1COc2ccc(-c3cc(-c4ccccc4)cc(-c4ccc5oc(=O)[nH]c5c4)n3)cc2N1 | 10 | 3.8
inactive | inactive | – | – | – | O=S(=O)(NCCNC/C=C/c1ccc(Br)cc1)c1cccc2cnccc12 | – | –
